The text below walks through data of patent publication US6878388B1, “Vanadium compounds for treating proliferative cell disorders” (Parker Hughes Institute, priority 2000, dated 2005).

Test [1] relates to U118 human glioblastoma cells. Put plainly: MTT cytotoxicity assay, U118. The note with it: 48 h incubation, 3 independent experiments, read-out: IC50 (mean ± SE). In kind it is cell-based. The method, then: (§1) Human brain tumor cells lines U87 MG (Cat.# HTB-14), U118 MG (Cat. # HTB-15), U138 (Cat # HTB-16), U373 MG (CAT. # HTB-17), and T98G (Cat. # CRL-1690) and breast cancer cell lines BT-20 (Cat # HTB-19), MDA-MB-231 (Cat # HTB-26), MDA-MB-361 (Cat # HTB-27), and MCF-7 (Cat # HTB-22) were obtained from American Type Culture Collection (ATCC, Rockville, Md.) and maintained as continuous cell lines in Dulbecco's modified Eagles's medium (U87, U118, U138, U373, T98 and BT-20) or Leibovitz's L-15 medium (MDA-MB-231 and MDA-MB-361). All media were supplemented with 10% fetal calf serum (FCS), 4 mM glutamine, 100 U/ml penicillin G and […] streptomycin sulfate. All tissue culture reagents were obtained from Life Technologies Inc. (GIBCO-BRL, Gaithersburg, Md.).
(§2) The cytotoxicity of [VO(SO4)(Me2-Phen)2] against human cancer cell lines was analyzed using the MTT (3-[4,5-dimethylthiazol-2-yl]-2,5-diphenyl tetrazolium bromide) assay (Boehringer Mannheim Corp., Indianapolis, Ind.) as described previously (Narla et al., Clin Cancer Res., 4: 1405-1414, 1998). […] The absorbance at 540 nm (a reference wavelength of 690 nm was used) of the solution in each well was measured using a microplate reader (Labsystems). The percent survival and the IC50 values were calculated using Graphpad Prism v2.0 (Graphpad Software, Inc., San Diego, Calif.) as described previously (Narla et al., Supra). […]
(In general: Tetrazolium assays rely on reduction of a dye to a coloured formazan, in cell work by metabolically active cells.)

The subject of test [2] is MDA-MB-361 breast cancer cells. Put plainly: MTT cytotoxicity assay, MDA-MB-361. The test is classed as cell-based, human. The note with it: MDA-MB-361 cells, 48 h incubation, 3 independent experiments, read-out: IC50 (mean ± SE). The protocol: as §1, §2
For test [3], the system named is MCF-7 breast cancer cells. As to the kind of experiment: MTT cytotoxicity assay, MCF-7. The note with it: MCF-7 cells, 48 h incubation, 3 independent experiments, read-out: IC50 (mean ± SE). In kind it is cell-based, human. The protocol: as §1, §2
The test system of test [4] is U373 glioblastoma cell spheroids. As to the kind of experiment: Spheroid migration assay. The test is classed as cell-based, human. The settings on record: for inhibition of tumor cell migration from the spheroids / migration distance: U373 spheroids; for migration distance: 48 h (DMSO control 745±29 μm). The protocol:
Dissociation and migration are the initial steps for infiltration of tumor cells into the surrounding tissue (Pilkington et al., Anticancer Res., 17: 4107-4109, 1997; Giese et al., Neurosurgery, 39: 235-252, 1996; Chintala et al., Front Biosci, 1: d324-39, 1996). Migration of brain tumor cells was monitored using U373 glioblastoma cell spheroids, as described previously (Narla et al., Clin Cancer Res, 4:2463-2471, 1998). Glioblastoma cell spheroids were cultured in 100 mm^2 tissue culture plates precoated with 0.75% agar prepared in MEM supplemented with 10% fetal bovine serum. The cells (5×10^6 cells) were suspended in the medium, seeded onto agar-coated plates and cultured for 5-7 days at 37° C. Spheroids with a diameter of 200-400 μm were selected for use in further experiments. For the migration experiments, the selected spheroids were incubated for 2 hours at 37° C. in serum-free medium containing [VO(SO4)(Me2-Phen)2] in concentrations ranging from 1 μM to 25 μM. The [VO(SO4)(Me2-Phen)2]-treated and vehicle control (DMSO, 0.1%) spheroids were transferred onto fibronectin-coated coverslips (Becton Dickinson, Bedford, Mass.) and placed in 6-well plates containing the same concentrations of [VO(SO4)(Me2-Phen)2] or DMSO in serum-free medium. Spheroids were then kept in a humidified 5CO2 incubator at 37° C. for 48 hours. A total of 4-6 spheroids were used for each concentration. Following the 48 hours incubation period, the spheroids were fixed and stained with Hema-3 solutions and mounted onto glass slides. The distance of tumor cell migration from the spheroid was measured using an ocular micrometer and a transmitted light microscope.
Spheroids measuring 259.2±41.9 μm in diameter were incubated with [VO(SO4)(Me2-Phen)2] or DMSO on fibronectin-coated coverslips. The U373 gioblastoma cells incubated with DMSO rapidly migrated to a distance 745±29 μm away from the spheroid.

In the case of `Cc1ccnc2c1ccc1c(C)ccnc12.Cc1ccnc2c1ccc1c(C)ccnc12.O=S(=O)([O-])[O-].[O]=[V+2]` [[VO(SO4)(Me2-Phen)2], bis(4,7-dimethyl-1,10-phenanthroline) sulfatooxovanadium (IV)], the IC50 is 820 ± 100 nM in test [1]; 1900 ± 500 nM in test [2]; 2300 ± 400 nM in test [3]; 1400 ± 200 nM in test [4] (U373 spheroids on fibronectin-coated coverslips, 48 h, read-out: IC50 inhibition of tumor cell migration). For the same molecule, the “inhibition of tumor cell migration from the spheroids” value in test [4] (1 μM, 48 h) amounted to 58.3±7.3%; in test [4] (2 μM, 48 h) it was 71.2±3.4%. In addition, the migration distance in test [4] (1 μM) is recorded as 311.1±54.4 μm; in test [4] (2 μM) it was 214.9±25.7 μm.
